Data: US4845194A, “Glycopeptide recovery process” (Eli Lilly and Company, priority 1987, dated 1989)

Tests used:
Assay in all cases: In vivo antimicrobial activity in experimentally infected mice (ED50)
[1] = tested on: Staphylococcus aureus; settings: for ED50 Value Staphylococcus aureus: mg/kg × 2, doses administered subcutaneously to mice 1 and 4 hours postinfection, dose protecting 50% of animals
Method: (§1) The A82846 antibiotics have shown in vivo antimicrobial activity against experimentally-induced infections in laboratory animals. When two doses of test compound were administered to mice experimentally infected with the test organism, the activity observed was measured as an ED50 value [effective dose in mg/kg to protect 50% of the test animals: see Warren Wick, et al., J. Bacteriol. 81, 233-235 (1961)].
(§2) ^a mg/kg × 2; doses administered subcutaneously to mice 1 and 4

[2] = tested on: Streptococcus pneumoniae; settings: for ED50 Value Streptococcus pneumoniae: mg/kg × 2, doses administered subcutaneously to mice 1 and 4 hours postinfection, dose protecting 50% of animals
Method: as §1, §2

[3] = tested on: Streptococcus pyogenes; settings: for ED50 Value Streptococcus pyogenes: mg/kg × 2, doses administered subcutaneously to mice 1 and 4 hours postinfection, dose protecting 50% of animals
Method: as §1, §2

## CN[C@H](CC(C)C)C(=O)N[C@H]1C(=O)N[C@@H](CC(N)=O)C(=O)N[C@H]2C(=O)N[C@H]3C(=O)N[C@H](C(=O)N[C@@H](C(=O)O)c4cc(O)cc(O)c4-c4cc3ccc4O)[C@H](O[C@@H]3C[C@@](C)(N)[C@H](O)[C@@H](C)O3)c3ccc(cc3)Oc3cc2cc(c3O[C@H]2O[C@@H](CO)[C@H](O)[C@@H](O)[C@@H]2O[C@H]2C[C@](C)(N)[C@@H](O)[C@H](C)O2)Oc2ccc(cc2Cl)[C@H]1O [Compound A82846A]
[1]
  ED50 Value Staphylococcus aureus: 0.19 mg/kg
[2]
  ED50 Value Streptococcus pneumoniae: 0.17 mg/kg
[3]
  ED50 Value Streptococcus pyogenes: 0.19 mg/kg

## CN[C@H](CC(C)C)C(=O)N[C@H]1C(=O)N[C@@H](CC(N)=O)C(=O)N[C@H]2C(=O)N[C@H]3C(=O)N[C@H](C(=O)N[C@H](C(=O)O)c4cc(O)cc(O)c4-c4cc3ccc4O)[C@H](O[C@H]3C[C@](C)(N)[C@@H](O)[C@H](C)O3)c3ccc(c(Cl)c3)Oc3cc2cc(c3O[C@@H]2O[C@H](CO)[C@@H](O)[C@H](O)[C@H]2O[C@H]2C[C@](C)(N)[C@@H](O)[C@H](C)O2)Oc2ccc(cc2Cl)[C@H]1O [Compound A82846B]
[1]
  ED50 Value Staphylococcus aureus: 0.19 mg/kg
[2]
  ED50 Value Streptococcus pneumoniae: 0.18 mg/kg
[3]
  ED50 Value Streptococcus pyogenes: 0.20 mg/kg

## CN[C@@H](CC(C)C)C(=O)N[C@H]1C(=O)N[C@H](CC(N)=O)C(=O)N[C@H]2C(=O)N[C@H]3C(=O)N[C@@H](C(=O)NC(C(=O)O)c4cc(O)cc(O)c4-c4cc3ccc4O)[C@@H](O[C@H]3C[C@](C)(N)[C@H](O)[C@@H](C)O3)c3ccc(cc3)Oc3cc2cc(c3O[C@H]2O[C@@H](CO)[C@@H](O)[C@H](O)[C@@H]2O[C@H]2C[C@](C)(N)[C@H](O)[C@@H](C)O2)Oc2ccc(cc2)[C@@H]1O (stereo partly drawn) [Compound A82846C]
[1]
  ED50 Value Staphylococcus aureus: 2.18 mg/kg
[2]
  ED50 Value Streptococcus pneumoniae: 5.87 mg/kg
[3]
  ED50 Value Streptococcus pyogenes: 2.71 mg/kg

## CN[C@H](CC(C)C)C(=O)N[C@H]1C(=O)N[C@@H](CC(N)=O)C(=O)N[C@H]2C(=O)N[C@H]3C(=O)N[C@H](C(=O)N[C@H](C(=O)O)c4cc(O)cc(O)c4-c4cc3ccc4O)[C@H](O)c3ccc(c(Cl)c3)Oc3cc2cc(c3O[C@@H]2O[C@H](CO)[C@@H](O)[C@H](O)[C@H]2O[C@H]2C[C@](C)(N)[C@H](O)[C@H](C)O2)Oc2ccc(cc2Cl)[C@H]1O [Vancomycin, vancomycin, reference compound]
[1]; Staphylococcus aureus, sc, read-out: ED50 Value Staphylococcus aureus
  ED50: 1.3 mg/kg
[2]; Streptococcus pneumoniae, sc, read-out: ED50 Value Streptococcus pneumoniae
  ED50: 1.52 mg/kg
[3]; Streptococcus pyogenes, sc, read-out: ED50 Value Streptococcus pyogenes
  ED50: 0.72 mg/kg
